Test results taken from PubChem BioAssay (NCI).
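Growth conditions: 96-well plates. Treatment: test compound, 48 hours, 5 concentrations. Analysis: linear interpolation between bracketing concentrations; unreached endpoints set to highest concentration. Here, GI50 denotes the concentration required for 50% inhibition of growth. At the TGI there is no net growth.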

Legend:
Test in all cases: growth of human tumour cells (NCI), 48 h
NCI-H226 lung = test system: NCI-H226 lung
NCI-H23 lung = test system: NCI-H23 lung
NCI-H460 lung = test system: NCI-H460 lung
NCI-H522 lung = test system: NCI-H522 lung
NCI/ADR-RES ovarian = test system: NCI/ADR-RES ovarian
OVCAR-3 ovarian = test system: OVCAR-3 ovarian
OVCAR-4 ovarian = test system: OVCAR-4 ovarian
OVCAR-5 ovarian = test system: OVCAR-5 ovarian
OVCAR-8 ovarian = test system: OVCAR-8 ovarian
PC-3 prostate = test system: PC-3 prostate
RPMI-8226 leukemia = test system: RPMI-8226 leukemia
RXF 393 renal = test system: RXF 393 renal
SF-268 CNS = test system: SF-268 CNS
SF-295 CNS = test system: SF-295 CNS
SF-539 CNS = test system: SF-539 CNS
SK-MEL-2 melanoma = test system: SK-MEL-2 melanoma
SK-MEL-28 melanoma = test system: SK-MEL-28 melanoma
SK-MEL-5 melanoma = test system: SK-MEL-5 melanoma
SK-OV-3 ovarian = test system: SK-OV-3 ovarian
SN12C renal = test system: SN12C renal
SNB-19 CNS = test system: SNB-19 CNS
SNB-75 CNS = test system: SNB-75 CNS
SR leukemia = test system: SR leukemia
SW-620 colon = test system: SW-620 colon
T-47D breast = test system: T-47D breast
TK-10 renal = test system: TK-10 renal
U251 CNS = test system: U251 CNS
UACC-257 melanoma = test system: UACC-257 melanoma
UACC-62 melanoma = test system: UACC-62 melanoma
UO-31 renal = test system: UO-31 renal

SMILES: Brc1ccc(N/N=C/c2c[nH]c3ccccc23)nc1
- TGI (NCI-H226 lung): > 100 µM
- GI50 (NCI-H23 lung): > 100 µM
- TGI (NCI-H23 lung): > 100 µM
- GI50 (NCI-H460 lung): 14.1 µM
- TGI (NCI-H460 lung): > 100 µM
- GI50 (NCI-H522 lung): 2.53 µM
- TGI (NCI-H522 lung): 28 µM
- GI50 (NCI/ADR-RES ovarian): 7.03 µM
- TGI (NCI/ADR-RES ovarian): > 100 µM
- GI50 (OVCAR-3 ovarian): 8.63 µM
- TGI (OVCAR-3 ovarian): > 100 µM
- GI50 (OVCAR-4 ovarian): 77.9 µM
- TGI (OVCAR-4 ovarian): > 100 µM
- GI50 (OVCAR-5 ovarian): > 100 µM
- TGI (OVCAR-5 ovarian): > 100 µM
- GI50 (OVCAR-8 ovarian): 26.3 µM
- TGI (OVCAR-8 ovarian): > 100 µM
- GI50 (PC-3 prostate): 4.83 µM
- TGI (PC-3 prostate): > 100 µM
- GI50 (RPMI-8226 leukemia): 3.07 µM
- TGI (RPMI-8226 leukemia): > 100 µM
- GI50 (RXF 393 renal): 2.5 µM
- TGI (RXF 393 renal): 80.9 µM
- GI50 (SF-268 CNS): 4.15 µM
- TGI (SF-268 CNS): > 100 µM
- GI50 (SF-295 CNS): 19.1 µM
- TGI (SF-295 CNS): > 100 µM
- GI50 (SF-539 CNS): 4.7 µM
- TGI (SF-539 CNS): > 100 µM
- GI50 (SK-MEL-2 melanoma): > 100 µM
- TGI (SK-MEL-2 melanoma): > 100 µM
- GI50 (SK-MEL-28 melanoma): > 100 µM
- TGI (SK-MEL-28 melanoma): > 100 µM
- GI50 (SK-MEL-5 melanoma): 25.6 µM
- TGI (SK-MEL-5 melanoma): > 100 µM
- GI50 (SK-OV-3 ovarian): 56.2 µM
- TGI (SK-OV-3 ovarian): > 100 µM
- GI50 (SN12C renal): 2.28 µM
- TGI (SN12C renal): > 100 µM
- GI50 (SNB-19 CNS): 11.4 µM
- TGI (SNB-19 CNS): 46.4 µM
- GI50 (SNB-75 CNS): 0.385 µM
- TGI (SNB-75 CNS): 97.9 µM
- GI50 (SR leukemia): 2.28 µM
- TGI (SR leukemia): > 100 µM
- GI50 (SW-620 colon): 76 µM
- TGI (SW-620 colon): > 100 µM
- GI50 (T-47D breast): 3.97 µM
- TGI (T-47D breast): > 100 µM
- GI50 (TK-10 renal): 48 µM
- TGI (TK-10 renal): > 100 µM
- GI50 (U251 CNS): 21 µM
- TGI (U251 CNS): > 100 µM
- GI50 (UACC-257 melanoma): > 100 µM
- TGI (UACC-257 melanoma): > 100 µM
- GI50 (UACC-62 melanoma): 37.3 µM
- TGI (UACC-62 melanoma): > 100 µM
- GI50 (UO-31 renal): 1.46 µM
- TGI (UO-31 renal): > 100 µM
